Assay results from patent publication US8921360B2, “Heterobicycle-substituted azolyl benzene fungicides” (priority 2009, dated 2014).

Assays:
Assay type in all cases: in vivo
Septoria nodorum = experiment: Test D: wheat glume blotch, preventive spray on wheat seedlings; settings: Parastagonospora nodorum, 216 h, wheat seedlings sprayed to run-off, inoculated next day, rated after 48 h + 7 days, read-out: Percentage Disease Control Test D
Excerpt: General protocol for preparing test suspensions for Tests A-G: the test compounds were first dissolved in acetone in an amount equal to 11% of the final volume and then suspended at the desired concentration (in ppm) in acetone and purified water (50/50 mix by volume) containing 250 ppm of the surfactant Trem® 014 (polyhydric alcohol esters). The resulting test suspensions were then used in Tests A-G. Spraying a 200 ppm test suspension to the point of run-off on the test plants was the equivalent of a rate of 800 g/ha. The test suspension was sprayed to the point of run-off on wheat seedlings. The following day the seedlings were inoculated with a spore suspension of Septoria nodorum (the causal agent of wheat glume blotch) and incubated in a saturated atmosphere at 20° C. for 48 h, and then moved to a growth chamber at 20° C. for 7 days, after which time disease ratings were visually made. Results for Tests A-G are given in Table A. In the Table, a rating of 100 indicates 100% disease control and a rating of 0 indicates no disease control (relative to the controls). A dash (-) indicates no test results. All results are for 200 ppm except where followed by an “*”, which indicates 40 ppm.

Botrytis cinerea = experiment: Test F: tomato botrytis, preventive spray on tomato seedlings; settings: Botrytis cinerea, topical, 120 h, tomato seedlings sprayed to run-off, inoculated next day, rated after 48 h + 3 days, read-out: Percentage Disease Control Test F
Excerpt: General protocol for preparing test suspensions for Tests A-G: the test compounds were first dissolved in acetone in an amount equal to 11% of the final volume and then suspended at the desired concentration (in ppm) in acetone and purified water (50/50 mix by volume) containing 250 ppm of the surfactant Trem® 014 (polyhydric alcohol esters). The resulting test suspensions were then used in Tests A-G. Spraying a 200 ppm test suspension to the point of run-off on the test plants was the equivalent of a rate of 800 g/ha. The test suspension was sprayed to the point of run-off on tomato seedlings. The following day the seedlings were inoculated with a spore suspension of Botrytis cinerea (the causal agent of tomato botrytis) and incubated in saturated atmosphere at 20° C. for 48 h, and then moved to a growth chamber at 27° C. for 3 additional days, after which time disease ratings were visually made. Results for Tests A-G are given in Table A. In the Table, a rating of 100 indicates 100% disease control and a rating of 0 indicates no disease control (relative to the controls). A dash (-) indicates no test results. All results are for 200 ppm except where followed by an “*”, which indicates 40 ppm.

[1] = tested on: Erysiphe graminis f. sp. tritici; experiment: Test A: wheat powdery mildew, preventive spray on wheat seedlings; settings: Blumeria graminis, 192 h, wheat seedlings sprayed to run-off, inoculated next day, rated after 8 days, 100 = 100% disease control, 0 = no control, read-out: Percentage Disease Control Test A
Excerpt: General protocol for preparing test suspensions for Tests A-G: the test compounds were first dissolved in acetone in an amount equal to 11% of the final volume and then suspended at the desired concentration (in ppm) in acetone and purified water (50/50 mix by volume) containing 250 ppm of the surfactant Trem® 014 (polyhydric alcohol esters). The resulting test suspensions were then used in Tests A-G. Spraying a 200 ppm test suspension to the point of run-off on the test plants was the equivalent of a rate of 800 g/ha. The test suspension was sprayed to the point of run-off on wheat seedlings. The following day the seedlings were inoculated with a spore dust of Erysiphe graminis f. sp. tritici, (the causal agent of wheat powdery mildew) and incubated in a growth chamber at 20° C. for 8 days, after which time disease ratings were visually made. Results for Tests A-G are given in Table A. In the Table, a rating of 100 indicates 100% disease control and a rating of 0 indicates no disease control (relative to the controls). A dash (-) indicates no test results. All results are for 200 ppm except where followed by an “*”, which indicates 40 ppm.

Alternaria solani = experiment: Test G: tomato early blight, preventive spray on tomato seedlings; settings: Alternaria solani, topical, 168 h, tomato seedlings sprayed to run-off, inoculated next day, rated after 48 h + 5 days, read-out: Percentage Disease Control Test G
Excerpt: General protocol for preparing test suspensions for Tests A-G: the test compounds were first dissolved in acetone in an amount equal to 11% of the final volume and then suspended at the desired concentration (in ppm) in acetone and purified water (50/50 mix by volume) containing 250 ppm of the surfactant Trem® 014 (polyhydric alcohol esters). The resulting test suspensions were then used in Tests A-G. Spraying a 200 ppm test suspension to the point of run-off on the test plants was the equivalent of a rate of 800 g/ha. The test suspension was sprayed to the point of run-off on tomato seedlings. The following day the seedlings were inoculated with a spore suspension of Alternaria solani (the causal agent of tomato early blight) and incubated in a saturated atmosphere at 27° C. for 48 h, and then moved to a growth chamber at 24° C. for 5 days, after which time disease ratings were visually made. Results for Tests A-G are given in Table A. In the Table, a rating of 100 indicates 100% disease control and a rating of 0 indicates no disease control (relative to the controls). A dash (-) indicates no test results. All results are for 200 ppm except where followed by an “*”, which indicates 40 ppm.

Septoria tritici = experiment: Test E: wheat leaf blotch, preventive spray on wheat seedlings; settings: Zymoseptoria tritici, 456 h, wheat seedlings sprayed to run-off, inoculated next day, rated after 48 h + 19 days, read-out: Percentage Disease Control Test E
Excerpt: General protocol for preparing test suspensions for Tests A-G: the test compounds were first dissolved in acetone in an amount equal to 11% of the final volume and then suspended at the desired concentration (in ppm) in acetone and purified water (50/50 mix by volume) containing 250 ppm of the surfactant Trem® 014 (polyhydric alcohol esters). The resulting test suspensions were then used in Tests A-G. Spraying a 200 ppm test suspension to the point of run-off on the test plants was the equivalent of a rate of 800 g/ha. The test suspension was sprayed to the point of run-off on wheat seedlings. The following day the seedlings were inoculated with a spore suspension of Septoria tritici (the causal agent of wheat leaf blotch) and incubated in a saturated atmosphere at 24° C. for 48 h, and then moved to a growth chamber at 20° C. for 19 days, after which time disease ratings were visually made. Results for Tests A-G are given in Table A. In the Table, a rating of 100 indicates 100% disease control and a rating of 0 indicates no disease control (relative to the controls). A dash (-) indicates no test results. All results are for 200 ppm except where followed by an “*”, which indicates 40 ppm.

Row | SMILES | pest or weed control at 200 ppm (Septoria nodorum) | pest or weed control at 200 ppm (Botrytis cinerea) | pest or weed control at 200 ppm [1] | pest or weed control at 200 ppm (Alternaria solani) | pest or weed control at 40 ppm (Septoria tritici; 40 ppm (value followed by *)) | pest or weed control at 200 ppm (Septoria tritici)
1 | CC(=O)NCc1cc(-c2ccn(-c3ccc4c(c3)CCCO4)n2)ccc1Cl [Compound 2, N-[[2-chloro-5-[1-(3,4-dihydro-2H-1-benzopyran-6-yl)-1H-pyrazol-3-yl]-phenyl]methyl]acetamide] | 100% | 0% | 84% | 53% | 97% | –
2 | CNC(=O)NCc1cc(-n2ccc(-c3ccc4c(c3)CCCO4)n2)ccc1Cl [Compound 9, N-[[2-chloro-5-[3-(3,4-dihydro-2H-1-benzopyran-6-yl)-1H-pyrazol-1-yl]phenyl]methyl]-N′-methylurea] | 100% | 0% | 0% | 9% | – | 79%
3 | COC(=O)NCc1cc(-c2ccn(-c3ccc4c(c3)CCCO4)n2)ccc1F [Compound 12, methyl N-[[5-[1-(3,4-dihydro-2H-1-benzopyran-6-yl)-1H-pyrazol-3-yl]-2-fluorophenyl]methyl]carbamate] | 100% | 0% | 100% | 88% | – | 100%
4 | COC(=O)NCc1cc(-c2ccn(-c3ccc4c(c3)C=C(C(=O)O)CO4)n2)ccc1Cl [Compound 24, 6-[3-[4-chloro-3-[[(methoxycarbonyl)amino]methyl]phenyl]-1H-pyrazol-1-yl]-2H-1-benzopyran-3-carboxylic acid] | 89% | 0% | 0% | 0% | – | 0%
5 | CC(=O)NCc1cc(-n2ccc(-c3ccc4c(c3)CCCO4)n2)ccc1Cl [Compound 8, N-[[2-chloro-5-[3-(3,4-dihydro-2H-1-benzopyran-6-yl)-1H-pyrazol-1-yl]phenyl]methyl]acetamide] | 100% | 73% | 0% | 91% | – | 98%
6 | COC(=O)NCc1cc(-n2ccc(-c3ccc4c(c3)CCCO4)n2)ccc1C [Compound 25, methyl N-[[5-[3-(3,4-dihydro-2H-1-benzopyran-6-yl)-1H-pyrazol-1-yl]-2-methylphenyl]methyl]carbamate] | 100% | 0% | 100% | 0% | – | 100%
7 | COC(=O)NCc1cc(-c2ccn(-c3ccc4c(c3)CC(=O)CO4)n2)ccc1Cl [Compound 29, methyl N-[[2-chloro-5-[1-(3,4-dihydro-3-oxo-2H-1-benzopyran-6-yl)-1H-pyrazol-3-yl]phenyl]methyl]carbamate] | 99% | 0% | 72% | 17% | – | 10%
8 | COC(=O)NCc1cc(-n2ccc(-c3ccc4c(c3)OCCO4)n2)ccc1Cl [Compound 7, methyl N-[[2-chloro-5-[3-(2,3-dihydro-1,4-benzodioxin-6-yl)-1H-pyrazol-1-yl]-phenyl]methyl]carbamate] | 100% | 98% | 100% | 97% | – | 100%
9 | COC(=O)NCc1cc(-c2ccn(-c3ccc4c(c3)C=C(C(=O)OC)CO4)n2)ccc1Cl [Compound 23, methyl 6-[3-[4-chloro-3-[[(methoxycarbonyl)amino]methyl]phenyl]-1H-pyrazol-1-yl]-2H-1-benzopyran-3-carboxylate] | 73% | 0% | 0% | 0% | – | 0%
10 | COC(=O)NCc1cc(-n2ccc(-c3ccc4c(c3)CCCO4)n2)ccc1Cl [Compound 5, methyl N-[[2-chloro-5-[3-(3,4-dihydro-2H-1-benzopyran-6-yl)-1H-pyrazol-1-yl]phenyl]methyl]carbamate] | 100% | 98% | 100% | 0% | – | 100%
11 | COC(=O)NCc1cc(-c2ccn(-c3ccc4c(c3)CCCO4)n2)ccc1C [Compound 20, methyl N-[[5-[1-(3,4-dihydro-2H-1-benzopyran-6-yl)-1H-pyrazol-3-yl]-2-methylphenyl]methyl]carbamate] | 100% | 95% | 99% | 90% | – | 100%
12 | CNC(=O)NCc1cc(-c2ccn(-c3ccc4c(c3)CCCO4)n2)ccc1Cl [Compound 4, N-[[2-chloro-5-[1-(3,4-dihydro-2H-1-benzopyran-6-yl)-1H-pyrazol-3-yl]-phenyl]methyl]-N′-methylurea] | 82% | 0% | 0% | 0% | – | 0%
13 | COC(=O)NCc1cc(-n2ccc(-c3ccc4c(c3)OCO4)n2)ccc1Cl [Compound 6, methyl N-[[5-[3-(1,3-benzodioxol-5-yl)-1H-pyrazol-1-yl]-2-chlorophenyl]-methyl]carbamate] | 100% | 91% | 100% | 95% | – | 99%
